{"source": "ChEMBL document CHEMBL1201862", "about": "“PubChem BioAssay data set” (2004)", "key": {"[1]": {"target": "T1, Mitochondrial peptide methionine sulfoxide reductase (Bos taurus, UniProt P54149)", "T1 sequence (P54149 whole entry)": "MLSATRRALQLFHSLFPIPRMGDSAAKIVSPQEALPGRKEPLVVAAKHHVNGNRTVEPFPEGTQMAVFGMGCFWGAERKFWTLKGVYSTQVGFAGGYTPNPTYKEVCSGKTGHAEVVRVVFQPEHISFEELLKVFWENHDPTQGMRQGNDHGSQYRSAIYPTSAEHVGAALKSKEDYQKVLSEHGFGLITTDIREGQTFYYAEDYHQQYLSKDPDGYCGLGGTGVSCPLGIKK", "format": "functional"}, "[2]": {"target": "Adenosylmethionine-8-amino-7-oxononanoate aminotransferase (Mycobacterium tuberculosis, UniProt P9WQ81)", "sequence (P9WQ81 whole entry)": "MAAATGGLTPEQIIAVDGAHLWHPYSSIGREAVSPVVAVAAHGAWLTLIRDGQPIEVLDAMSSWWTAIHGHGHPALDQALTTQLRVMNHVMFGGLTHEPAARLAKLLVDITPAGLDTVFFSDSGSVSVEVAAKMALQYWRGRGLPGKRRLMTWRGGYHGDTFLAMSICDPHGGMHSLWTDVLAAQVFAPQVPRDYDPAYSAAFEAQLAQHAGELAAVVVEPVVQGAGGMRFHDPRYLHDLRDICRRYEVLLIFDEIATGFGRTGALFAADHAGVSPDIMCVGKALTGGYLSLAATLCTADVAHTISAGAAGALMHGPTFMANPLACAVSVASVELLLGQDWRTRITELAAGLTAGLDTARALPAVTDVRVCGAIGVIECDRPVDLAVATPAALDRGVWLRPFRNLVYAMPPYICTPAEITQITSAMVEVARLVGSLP", "experiment": "Mycobacterium tuberculosis BioA enzyme inhibitor Measured in Biochemical System Using Plate Reader - 2163-02_Inhibitor_Dose_CherryPick_Activity.", "format": "functional, Mycobacterium tuberculosis UT205"}, "[3]": {"target": "T2, High affinity choline transporter 1 (Homo sapiens, UniProt Q9GZV3)", "T2 sequence (Q9GZV3 whole entry)": "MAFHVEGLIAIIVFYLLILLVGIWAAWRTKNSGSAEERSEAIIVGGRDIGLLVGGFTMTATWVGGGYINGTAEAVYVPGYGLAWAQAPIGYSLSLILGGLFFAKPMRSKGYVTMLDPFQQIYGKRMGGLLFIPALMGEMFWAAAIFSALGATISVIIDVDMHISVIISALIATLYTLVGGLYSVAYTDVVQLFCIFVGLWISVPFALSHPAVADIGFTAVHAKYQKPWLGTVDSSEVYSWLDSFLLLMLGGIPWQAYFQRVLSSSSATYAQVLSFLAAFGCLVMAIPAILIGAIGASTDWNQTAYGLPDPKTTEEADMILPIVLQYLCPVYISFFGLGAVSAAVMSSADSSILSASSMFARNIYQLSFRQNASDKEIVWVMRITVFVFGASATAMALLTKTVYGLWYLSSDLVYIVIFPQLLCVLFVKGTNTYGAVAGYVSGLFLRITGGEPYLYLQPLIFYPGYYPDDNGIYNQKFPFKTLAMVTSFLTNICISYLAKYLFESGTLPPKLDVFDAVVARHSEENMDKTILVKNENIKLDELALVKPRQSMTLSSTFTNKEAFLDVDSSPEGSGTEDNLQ", "experiment": "human choline transporter blockers, potency – cell-based, 5-point CRC, membrane potential dye, dose response (AID 504840)", "format": "functional"}, "[4]": {"target": "T2, High affinity choline transporter 1", "experiment": "human choline transporter blockers, potency – cell-based, 10-point CRC, membrane potential dye, dose response (AID 588401);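 note: membrane potential dye fluorescence of choline-evoked depolarization via CHT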", "format": "functional"}, "[5]": {"target": "T2, High affinity choline transporter 1", "experiment": "human choline transporter radiolabel uptake blockers – cell-based, 3H-choline uptake, CHT LV-AA trafficking mutant, CRC, dose response (AID 602208)", "format": "functional"}, "Interleukin-8 [6]": {"target": "T3, Interleukin-8 (Homo sapiens, UniProt P10145)", "T3 sequence (P10145 whole entry)": "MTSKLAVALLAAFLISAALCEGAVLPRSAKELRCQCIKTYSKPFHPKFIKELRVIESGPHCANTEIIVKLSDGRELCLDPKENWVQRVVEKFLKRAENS", "experiment": "Dose Response confirmation of uHTS small molecule hits for cystic fibrosis induced NFkb Inhibitors in a TNFa-induced IL8 counterscreen.", "format": "functional", "details": "read-out: IC50_Mean"}, "Interleukin-8 [7]": {"target": "T3, Interleukin-8", "experiment": "Dose Response confirmation of uHTS small molecule hits for cystic fibrosis induced NFkb Inhibitors in a PAF-induced IL8 counterscreen.", "format": "functional", "details": "read-out: IC50_Mean"}, "[8]": {"experiment": "bead-based luminescence quenchers, dual-tagged ARNT – biochemical, AlphaScreen, cherry-pick, artefact control for ARNT-TACC3 interaction inhibitor project, dose response (AID 651705);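 note: AlphaScreen bead proximity signal that flags compounds interfering with the detection technology; potency reflects signal decrease which marks the compound as an assay artifact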", "format": "functional"}}, "note": "Calls of active or inactive are those of the source.", "data": [{"molecule": "O=C(O)c1cccc(N/N=C/c2sc(N3CCOCC3)nc2-c2ccccc2)c1", "values": [{"measurement": "IC50", "setting": "[1]", "result": "155 µM (inactive)"}]}, {"molecule": "COc1ccc(-c2ccc3c(c2)C2CC3CCN2)cc1", "note": "(stereo not drawn)", "values": [{"measurement": "AC50", "setting": "[2]", "result": "1.07 µM (active)"}]}, {"molecule": "CC1CCC(NC(=O)c2cccc(S(=O)(=O)NCc3ccccc3)c2)CC1", "note": "(stereo not drawn)", "values": [{"measurement": "IC50", "setting": "[3]", "result": "4.07 µM (active)"}, {"measurement": "IC50", "setting": "[4]", "result": "3.64 µM (active)"}, {"measurement": "IC50", "setting": "[5]", "result": "8.42 µM (active)"}]}, {"molecule": "CNc1ccc2ncc(-c3cccc(C(=O)N(C)C)c3)n2n1", "values": [{"measurement": "IC50", "setting": "Interleukin-8 [6]", "result": "> 79 µM (inactive)"}, {"measurement": "IC50", "setting": "Interleukin-8 [7]", "result": "2.04 µM (active)"}]}, {"molecule": "O=C(Oc1cccc2cccnc12)c1ccco1", "values": [{"measurement": "AC50", "setting": "[8]", "result": "131 µM (active)"}]}]}
